# Results: US20260297070A1, “CYCLIC [COMPOUND LEFT OUT] WRN INHIBITORS” (Nimbus Wadjet, Inc., priority 2023, published 2026)
# Target: T1, human Werner helicase (WRN-BV08, Uniprot Q14191, amino acids 517-1235 with L1074F point mutation) (Homo sapiens, UniProt Q14191, L1074F)
# T1 construct: Uniprot Q14191, amino acids 517-1235 with L1074F point mutation; TEV-cleavable 8×His (C, cleaved yes); made in house; host or cells: Sf9 insect cells (baculovirus)
# Test: WRN (BV08) ADP-Glo Assay
# Type: biochemical
# Conditions: 0.15 nM WRN, 5 μM ATP, 0.1 nM DNA duplex, 15 min preincubation, 60 min at 25° C., pH 7.5, 1% DMSO; read-out: ADP-Glo_hWRN_IC50
# How it was run: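 Percent inhibition was normalised to DMSO (max) and 20 μM NSC-617145 (min) controls from ADP-Glo luminescence, and IC50 values came from a four-parameter fit. The reaction ran 60 min at 25 °C with 0.15 nM WRN, 5 μM ATP and 0.1 nM duplex DNA.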
# T1 sequence (Q14191 with tags, fused parts or gaps L1074F limits assumed): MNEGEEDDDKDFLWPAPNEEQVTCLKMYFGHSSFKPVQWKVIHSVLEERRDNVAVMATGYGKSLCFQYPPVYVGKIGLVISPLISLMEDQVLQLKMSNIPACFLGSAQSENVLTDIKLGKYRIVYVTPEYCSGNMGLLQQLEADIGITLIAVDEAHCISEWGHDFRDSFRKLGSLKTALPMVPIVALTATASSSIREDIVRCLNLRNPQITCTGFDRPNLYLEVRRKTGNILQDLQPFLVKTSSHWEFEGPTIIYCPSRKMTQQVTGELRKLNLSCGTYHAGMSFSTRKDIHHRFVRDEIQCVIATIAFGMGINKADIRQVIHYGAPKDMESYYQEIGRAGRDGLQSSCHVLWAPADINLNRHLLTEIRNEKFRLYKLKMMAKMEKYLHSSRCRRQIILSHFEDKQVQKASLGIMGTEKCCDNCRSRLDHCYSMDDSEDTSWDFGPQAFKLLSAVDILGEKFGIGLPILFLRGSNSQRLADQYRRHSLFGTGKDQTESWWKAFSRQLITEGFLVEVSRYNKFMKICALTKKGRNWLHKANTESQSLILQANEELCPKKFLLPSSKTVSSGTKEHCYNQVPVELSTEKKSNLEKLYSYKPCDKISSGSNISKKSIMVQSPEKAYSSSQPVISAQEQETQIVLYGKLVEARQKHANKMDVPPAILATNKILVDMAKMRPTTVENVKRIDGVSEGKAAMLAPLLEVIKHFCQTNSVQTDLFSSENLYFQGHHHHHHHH
row,IC50 [µM],Structure (SMILES)
1,< 0.5,"CCN(C)C(=O)C(C(=O)N(Cc1ccnc(C(C)(C)O)c1)C1C=CS(=O)(=O)C1)c1ccc(-c2ccc(F)c(F)c2)cc1F (stereo not drawn) [I-75, N′-(1,1-dioxo-2,3-dihydro-1lambda6-thiophen-3-yl)-N-ethyl-N′-{[2-(2-hydroxypropan-2-yl)pyridin-4-yl]methyl}-N-methyl-2-{3,3′,4′-trifluoro-[1,1′-biphenyl]-4-yl}propanediamide]"
2,> 50,"O=C(C(C1CC1)n1cc(-c2ccccc2)cn1)N(Cc1ccncc1)C1C=CS(=O)(=O)C1 (stereo not drawn) [I-435, 2-cyclopropyl-N-(1,1-dioxo-2,3-dihydro-1lambda6-thiophen-3-yl)-2-(4-phenyl-1H-pyrazol-1-yl)-N-[(pyridin-4-yl)methyl]acetamide]"
3,5 to 10,"O=C(Cc1ccc(S(F)(F)(F)(F)F)cc1)N(Cc1cnoc1)C1C=CS(=O)(=O)C1 (stereo not drawn) [I-648, N-(1,1-dioxo-2,3-dihydro-1lambda6-thiophen-3-yl)-N-[(1,2-oxazol-4-yl)methyl]-2-[4-(pentafluoro-lambda6-sulfanyl)phenyl]acetamide]"
4,0.5 to 5,"CC(C)(O)c1cc(CN(C(=O)Cc2ccc(C(F)(F)F)cc2)C2C=CS(=O)(=O)C2)ccn1 (stereo not drawn) [I-135, N-(1,1-dioxo-2,3-dihydro-1lambda6-thiophen-3-yl)-N-{[2-(2-hydroxypropan-2-yl)pyridin-4-yl]methyl}-2-[4-(trifluoromethyl)phenyl]acetamide]"
5,5 to 10,"O=C(Cc1ccc(-n2cccc2)cc1)N(Cc1ccc(F)cc1F)C1C=CS(=O)(=O)C1 (stereo not drawn) [I-242, N-[(2,4-difluorophenyl)methyl]-N-(1,1-dioxo-2,3-dihydro-1lambda6-thiophen-3-yl)-2-[4-(1H-pyrrol-1-yl)phenyl]acetamide]"
6,0.5 to 5,"CNc1cc(CN(C(=O)Cc2ccc(-n3cccc3C)cc2F)C2C=CS(=O)(=O)C2)ccn1 (stereo not drawn) [I-142, N-(1,1-dioxo-2,3-dihydro-1lambda6-thiophen-3-yl)-2-[2-fluoro-4-(2-methyl-1H-pyrrol-1-yl)phenyl]-N-{[2-(methylamino)pyridin-4-yl]methyl}acetamide]"
7,< 0.5,"CC(C)(O)c1cc(CN(C(=O)Cn2ccc(-c3ccc(F)cc3)cc2=O)C2C=CS(=O)(=O)C2)ccn1 (single isomer, unassigned) [I-606]"
8,10 to 50,"O=C(Cc1ccc(C(F)(F)F)c(Cl)c1)N(Cc1ccncc1)C1C=CS(=O)(=O)C1 (stereo not drawn) [I-299, 2-[3-chloro-4-(trifluoromethyl)phenyl]-N-(1,1-dioxo-2,3-dihydro-1lambda6-thiophen-3-yl)-N-[(pyridin-4-yl)methyl]acetamide]"
9,< 0.5,"CC(C)(O)c1cc(CN(C(=O)Cn2cc(-c3cc(F)c(F)cc3F)cn2)C2C=CS(=O)(=O)C2)ccn1 (single isomer, unassigned) [I-763]"
10,10 to 50,"O=C(Cc1ccc(S(=O)(=O)C(F)F)cc1)N(Cc1ccncc1)C1C=CS(=O)(=O)C1 (stereo not drawn) [I-351, 2-(4-difluoromethanesulfonylphenyl)-N-(1,1-dioxo-2,3-dihydro-1lambda6-thiophen-3-yl)-N-[(pyridin-4-yl)methyl]acetamide]"
11,> 50,"O=C1Cc2ccc(CC(=O)N(Cc3ccncc3)C3C=CS(=O)(=O)C3)cc2N1 (stereo not drawn) [I-542, N-(1,1-dioxo-2,3-dihydro-1lambda6-thiophen-3-yl)-2-(2-oxo-2,3-dihydro-1H-indol-6-yl)-N-[(pyridin-4-yl)methyl]acetamide]"
12,> 50,"COc1ccccc1CN(C(=O)Cc1ccc(-n2cccc2)cc1)C1C=CS(=O)(=O)C1 (stereo not drawn) [I-524, N-(1,1-dioxo-2,3-dihydro-1lambda6-thiophen-3-yl)-N-[(2-methoxyphenyl)methyl]-2-[4-(1H-pyrrol-1-yl)phenyl]acetamide]"
13,5 to 10,"O=C(Cc1ccc(-n2cccc2)cc1)N(Cc1ccccc1)C1C=CS(=O)(=O)C1 (single isomer, unassigned) [I-262]"
14,10 to 50,"COC(C(=O)N(Cc1ccnc(C(C)(C)O)c1)C1C=CS(=O)(=O)C1)c1ccc(S(F)(F)(F)(F)F)cc1 (single isomer, unassigned) [I-665, (2R*)-N-[(3R**)-1,1-dioxo-2,3-dihydro-1lambda6-thiophen-3-yl]-N-{[2-(2-hydroxypropan-2-yl)pyridin-4-yl]methyl}-2-methoxy-2-[4-(pentafluoro-lambda6-sulfanyl)phenyl]acetamide]"
15,10 to 50,"CC(C)(C)c1ccc(CC(=O)N(Cc2ccncc2)C2C=CS(=O)(=O)C2)cc1 (stereo not drawn) [I-310, 2-(4-tert-butylphenyl)-N-(1,1-dioxo-2,3-dihydro-1lambda6-thiophen-3-yl)-N-[(pyridin-4-yl)methyl]acetamide]"
16,0.5 to 5,"O=C(Cc1ccc(S(F)(F)(F)(F)F)cc1)N(Cc1nnc(C2CC2)s1)C1C=CS(=O)(=O)C1 (stereo not drawn) [I-645, N-[(5-cyclopropyl-1,3,4-thiadiazol-2-yl)methyl]-N-(1,1-dioxo-2,3-dihydro-1lambda6-thiophen-3-yl)-2-[4-(pentafluoro-lambda6-sulfanyl)phenyl]acetamide]"
17,0.5 to 5,"O=C(O)c1ccc(CN(C(=O)Cc2ccc(-n3cccc3)cc2F)C2C=CS(=O)(=O)C2)cc1 (stereo not drawn) [I-185, 4-{[N-(1,1-dioxo-2,3-dihydro-1lambda6-thiophen-3-yl)-2-[2-fluoro-4-(1H-pyrrol-1-yl)phenyl]acetamido]methyl}benzoic acid]"

# The remaining lines, values behind:
row,Structure (SMILES),IC50 [µM]
1,"O=C(Cc1ccc(-n2cccc2)cc1)N(Cc1cccc(O)c1)C1C=CS(=O)(=O)C1 (stereo not drawn) [I-292, N-(1,1-dioxo-2,3-dihydro-1lambda6-thiophen-3-yl)-N-[(3-hydroxyphenyl)methyl]-2-[4-(1H-pyrrol-1-yl)phenyl]acetamide]",10 to 50
2,"O=C(Cc1ccc(N2CCCC2)cc1)N(Cc1ccncc1)C1C=CS(=O)(=O)C1 (stereo not drawn) [I-464, N-(1,1-dioxo-2,3-dihydro-1lambda6-thiophen-3-yl)-N-[(pyridin-4-yl)methyl]-2-[4-(pyrrolidin-1-yl)phenyl]acetamide]",> 50
3,"N#Cc1ccc2c(CC(=O)N(Cc3ccncc3)C3C=CS(=O)(=O)C3)c[nH]c2c1 (stereo not drawn) [I-546, 2-(6-cyano-1H-indol-3-yl)-N-(1,1-dioxo-2,3-dihydro-1lambda6-thiophen-3-yl)-N-[(pyridin-4-yl)methyl]acetamide]",> 50
4,"COc1cc(CN(C(=O)Cc2ccc(S(F)(F)(F)(F)F)cc2)[C@H]2C=CS(=O)(=O)C2)ccn1 [I-311, N-[(3S)-1,1-dioxo-2,3-dihydro-1lambda6-thiophen-3-yl]-N-[(2-methoxypyridin-4-yl)methyl]-2-[4-(pentafluoro-lambda6-sulfanyl)phenyl]acetamide]",> 50
5,"O=C(Cc1ccc(N2CCC2)cc1)N(Cc1ccncc1)C1C=CS(=O)(=O)C1 (stereo not drawn) [I-461, 2-[4-(azetidin-1-yl)phenyl]-N-(1,1-dioxo-2,3-dihydro-1lambda6-thiophen-3-yl)-N-[(pyridin-4-yl)methyl]acetamide]",> 50
6,"CS(=O)(=O)N1CCN(C(C(=O)N(Cc2ccncc2)C2C=CS(=O)(=O)C2)c2ccc(-n3cccc3)cc2)CC1 (stereo not drawn) [I-554, N-(1,1-dioxo-2,3-dihydro-1lambda6-thiophen-3-yl)-2-(4-methanesulfonylpiperazin-1-yl)-N-[(pyridin-4-yl)methyl]-2-[4-(1H-pyrrol-1-yl)phenyl]acetamide]",> 50
7,"O=C(Cn1nc(C(F)F)c2c1CCCC2)N(Cc1ccncc1)C1C=CS(=O)(=O)C1 (stereo not drawn) [I-616, 2-[3-(difluoromethyl)-4,5,6,7-tetrahydro-1H-indazol-1-yl]-N-(1,1-dioxo-2,3-dihydro-1lambda6-thiophen-3-yl)-N-[(pyridin-4-yl)methyl]acetamide]",> 50
8,"COC(C(=O)N(Cc1ccnc(C(C)(C)O)c1)C1C=CS(=O)(=O)C1)c1ccc(-c2ccc(F)cc2)cc1F (single isomer, unassigned) [I-199, (2R*)-2-{3,4′-difluoro-[1,1′-biphenyl]-4-yl}-N-[(3R**)-1,1-dioxo-2,3-dihydro-1lambda6-thiophen-3-yl]-N-{[2-(2-hydroxypropan-2-yl)pyridin-4-yl]methyl}-2-methoxyacetamide]",0.5 to 5
9,"O=C(C1CNc2cc(-c3ccc(F)cc3)ccc21)N(Cc1ccncc1)C1C=CS(=O)(=O)C1 (stereo not drawn) [I-124, N-(1,1-dioxo-2,3-dihydro-1lambda6-thiophen-3-yl)-6-(4-fluorophenyl)-N-[(pyridin-4-yl)methyl]-2,3-dihydro-1H-indole-3-carboxamide]",0.5 to 5
10,"COc1cc(CN(C(=O)Cc2ccc(-c3ccc(F)cc3O)nc2)C2C=CS(=O)(=O)C2)ccn1 (single isomer, unassigned) [I-353]",10 to 50
11,"COc1cc(CN(C(=O)C(c2ccc(-c3ccc(F)c(F)c3)cc2F)n2cc(C(F)F)cn2)[C@@H]2C=CS(=O)(=O)C2)ccn1 (single isomer, unassigned) [I-701, (2R*)-2-[4-(difluoromethyl)-1H-pyrazol-1-yl]-N-[(3R)-1,1-dioxo-2,3-dihydro-1lambda6-thiophen-3-yl]-N-[(2-methoxypyridin-4-yl)methyl]-2-{3,3′,4′-trifluoro-[1,1′-biphenyl]-4-yl}acetamide]",< 0.5
12,"O=C(C1Cc2cc(-c3ccc(F)cc3)ccc21)N(Cc1ccncc1)C1C=CS(=O)(=O)C1 (stereo not drawn) [I-249, N-(1,1-dioxo-2,3-dihydro-1lambda6-thiophen-3-yl)-3-(4-fluorophenyl)-N-[(pyridin-4-yl)methyl]bicyclo[4.2.0]octa-1(6),2,4-triene-7-carboxamide]",5 to 10

# Same assay, conditions: ADP-Glo_hWRN_IC50, 0.15 nM WRN, 5 μM ATP, 0.1 nM DNA duplex, 15 min preincubation, 60 min at 25° C., pH 7.5, 1% DMSO
row,IC50 [µM],Structure (SMILES)
1,> 50,"O=C(c1cc(-c2ccc(F)cc2)ns1)N(Cc1ccncc1)C1C=CS(=O)(=O)C1 (stereo not drawn) [I-615, N-(1,1-dioxo-2,3-dihydro-1lambda6-thiophen-3-yl)-3-(4-fluorophenyl)-N-[(pyridin-4-yl)methyl]-1,2-thiazole-5-carboxamide]"
